{"source": "paper PMC2683593", "about": "(The Journal of neuroscience : the official journal of the …, 2009)", "type_in_all_cases": "cell-based, Swiss-Webster mice", "key": {"[1]": {"system": "cerebrocortical neurons"}, "[2]": {"system": "cerebrocortical neurons", "remark": "listed apart in the source"}, "[3]": {"system": "cerebrocortical neurons", "experiment": "Viable neuron count by fluorescein diacetate staining", "conditions": "read-out: EC50 for decreasing the live neuron count, DIV-9, 95% CI 38.4–176 μM"}, "[4]": {"system": "cerebrocortical neurons", "experiment": "Intracellular Ca2+ monitoring"}, "[5]": {"system": "NMDA receptors", "experiment": "Single-channel cell-attached patch recording of NMDA receptor currents"}, "[6]": {"system": "cerebrocortical neurons", "experiment": "Intracellular sodium concentration"}, "[7]": {"system": "cerebrocortical neurons", "experiment": "Membrane potential assay"}, "[8]": {"system": "Src kinase"}, "[9]": {"conditions": "15 min preincubation with 10 μM PP2 or PP3, after PbTx-2"}, "[10]": {"conditions": "15 min preincubation with 10 μM PP2 or PP3, before PbTx-2"}}, "note": "Where “and” joins values, the source holds several entries; their conditions need not be identical. Identical values can stand only once. Entries after “also recorded” stand apart in the source; their conditions may differ. Like-named read-outs stand apart in the source and are kept apart here.", "data": [{"smiles": "C[C@]12N[C@H](Cc3ccccc31)c1ccccc12", "note": "[MK-801]", "values": [{"measurement": "effect on PbTx-2 enhanced neurite outgrowth", "setting": "[1]", "result": "abrogated"}, {"measurement": "total neurite length, inhibitor plus 30 nM PbTx-2", "setting": "[1]", "result": "83.1± 5.26", "unit": "μm"}]}, {"smiles": "CN[C@H](CC(=O)O)C(=O)O", "note": "[NMDA]", "values": [{"measurement": "sensitivity to NMDA-induced LDH efflux", "setting": "[2]; 2, 4 and 6 DIV cultures, after 2 h exposure or at 24 h post-exposure", "result": "little sensitivity"}, {"measurement": "maximal LDH efflux", "setting": "[2]; DIV-9 cultures, 24 h after initiation of 2 h NMDA exposure", "result": "247 ± 10.5 % of control"}, {"measurement": "EC50", "setting": "[2]; read-out: EC50 for LDH efflux, DIV-9 neurons, 95% CI 27.9–101 μM", "result": 53.1, "unit": "µM"}, {"measurement": "EC50", "setting": "[3]", "result": 82.2, "unit": "µM"}, {"measurement": "effect of NMDA alone on [Ca2+]i", "setting": "[4]; 3 μM NMDA, DIV-2 neurons", "result": "did not affect [Ca^2+]i"}, {"measurement": "EC50", "setting": "[4]; read-out: EC50 for NMDA-induced Ca2+ influx, DIV-4 neurons, absence of PbTx-2", "result": 19.2, "unit": "µM"}, {"measurement": "EC50", "setting": "[4]; read-out: EC50 for NMDA-induced Ca2+ influx, DIV-9 neurons, absence of PbTx-2", "result": 11.1, "unit": "µM"}]}, {"smiles": "Nc1ncnc2c1cnn2-c1ccccc1", "note": "[PP3, 4-Amino-7-phenylpyrazol [3,4-d] pyrimidine]", "values": [{"measurement": "mean open time, inhibitor plus PbTx-2", "setting": "[5]; [9]", "result": "3.87 ± 0.15", "unit": "ms"}, {"measurement": "open probability (Po), inhibitor plus PbTx-2", "setting": "[5]; [9]", "result": "0.013 ± 0.003"}, {"measurement": "mean open time, inhibitor alone (control)", "setting": "[5]; [10]", "result": "1.39 ± 0.09", "unit": "ms"}, {"measurement": "open probability (Po), inhibitor alone (control)", "setting": "[5]; [10]", "result": "0.0032 ± 0.0005"}]}, {"smiles": "C=C(C=O)C[C@@H]1C[C@H](O)[C@]2(C)O[C@@H]3C[C@@H]4O[C@@H]5C[C@]6(C)O[C@]7(C)CC[C@@H]8O[C@@H]9C[C@]%10(C)O[C@@H]%11C(C)=CC(=O)O[C@H]%11C[C@H]%10O[C@H]9C[C@@H](C)[C@H]8O[C@H]7C[C@H]6O[C@H]5C/C=C\\[C@H]4O[C@H]3C[C@H]2O1", "note": "[PbTx-2, Brevetoxin-2]", "values": [{"measurement": "Ca2+ influx pathway stimulated", "setting": "[4]", "result": "primarily through NMDA receptors; also recorded: through both L-type calcium channels and NMDA receptors"}, {"measurement": "effect of PbTx-2 alone on [Ca2+]i", "setting": "[4]", "result": "did not alter [Ca^2+]i"}, {"measurement": "effect of PbTx-2 alone on fluo-3 fluorescence", "setting": "[4]", "result": "did not increase fluo-3 fluorescence"}, {"measurement": "effect on NMDA-induced Ca2+ influx", "setting": "[4]", "result": "robust potentiation"}, {"measurement": "EC50", "setting": "[4]; read-out: EC50 for PbTx-2-stimulated increase in [Ca2+]i", "result": 0.244, "unit": "µM"}, {"measurement": "[Na+]i increment over basal", "setting": "[6]", "result": "8.8 ± 1.8", "unit": "mM"}, {"measurement": "concentration-response profile of [Na+]i", "setting": "[6]", "result": "hormetic profile"}, {"measurement": "maximum [Na+]i", "setting": "[6]", "result": "16.9 ± 1.5", "unit": "mM"}, {"measurement": "maximum elevation of [Na+]i (concentration-response)", "setting": "[6]", "result": "36.6 ± 0.9", "unit": "mM"}, {"measurement": "EC50", "setting": "[6]; read-out: EC50 for PbTx-2-induced elevation of [Na+]i", "result": 0.0433, "unit": "µM"}, {"measurement": "membrane potential after PbTx-2", "setting": "[7]", "result": "29.3 ± 0.02", "unit": "mV"}, {"measurement": "membrane potential change (depolarization)", "setting": "[7]", "result": "0.2 ± 0.02", "unit": "mV"}, {"measurement": "EC50", "setting": "[7]; read-out: EC50 for increment in FMP blue fluorescence (membrane potential)", "result": 0.0967, "unit": "µM"}, {"measurement": "amplitude of single channel currents", "setting": "[5]", "result": "6.8 ± 0.4", "unit": "pA"}, {"measurement": "effect on membrane potential from single channel NMDA receptor currents", "setting": "[5]", "result": "did not affect"}, {"measurement": "open probability (Po) of NMDA receptors", "setting": "[5]", "result": "0.031 ± 0.008"}, {"measurement": "open time histogram, first time constant (area)", "setting": "[5]", "result": "1.6 (65%)"}, {"measurement": "open time histogram, second time constant (area)", "setting": "[5]", "result": "4.1 (35%)"}, {"measurement": "shut time histogram, first time constant (area)", "setting": "[5]", "result": "0.63 (45%)"}, {"measurement": "shut time histogram, fourth time constant (area)", "setting": "[5]", "result": "1361 (11%)"}, {"measurement": "shut time histogram, second time constant (area)", "setting": "[5]", "result": "10.0 (16%)"}, {"measurement": "shut time histogram, third time constant (area)", "setting": "[5]", "result": "180 (28%)"}, {"measurement": "total neurite length", "setting": "[1]", "result": "265.8 ± 20.86 μm and 166.5 ± 17.9 μm"}, {"measurement": "phosphorylation of tyrosine 416 of Src", "setting": "[8]", "result": "significant increase"}]}, {"smiles": "O=C(O)c1ccc2c3c1cccc3c(=O)n1c3ccccc3nc21", "note": "[STO-609, 1,8-naphthoylene benzimidazole-3-carboxylic acid]", "values": [{"measurement": "effect on PbTx-2 enhanced neurite outgrowth", "setting": "[1]", "result": "completely blocked"}]}, {"smiles": "NC1=N[C@H](O)[C@H]2[C@H]3O[C@]4(O)O[C@@H]([C@@H](O)[C@@]2(N1)[C@@H]4O)[C@]3(O)CO", "note": "[TTX, tetrodotoxin]", "values": [{"measurement": "effect on PbTx-2 enhanced neurite outgrowth", "setting": "[1]", "result": "completely blocked"}, {"measurement": "total neurite length, inhibitor alone", "setting": "[1]", "result": "185 ± 13.2", "unit": "μm"}, {"measurement": "total neurite length, inhibitor plus 30 nM PbTx-2", "setting": "[1]", "result": "190.2 ± 10.7", "unit": "μm"}]}]}
